Patent US20250034135A1, “ANTI-APOPTOTIC PROTEIN BCL-2 INHIBITOR, PHARMACEUTICAL COMPOSITION AND USES THEREOF” (HANGZHOU HEALZEN THERAPEUTICS CO., LTD., priority 2021, published 2025)
pIC50: −log10 of the molar value. Like-named read-outs stand apart in the source and are kept apart here.

Assays:
[1] = test system: RS4; 11 cells; assay: Tumor proliferation inhibitory activity test (MTS) on RS4; 11; assay type: cell-based; conditions: Homo sapiens, RS4-11, 72 h, 3 days incubation
Method: The cell proliferation inhibitory ability of the compounds on RS4; 11 was tested using the MTS method. MTS is a tetrazolium blue salt compound that can be reduced by various dehydrogenases in live cell mitochondria to their respective colored methylzan products. Its color depth is highly correlated with the number of live cells in certain sensitive cell lines within a certain range. RS4; 11, RS4; 11 (BCL-2-G101V) and MOLT-4 tumor cells were cultivated separately and collected, 180 μL of cell suspension was added to each well in a 96-well cell plate, 20 μL of DMSO with a final concentration of 0.2% was added to the control cell wells, 20 μL of gradient diluted compounds were added to cell wells, and the treated cells were incubated in a 5% CO2 incubator at 37° C. for 3 days. After the incubation was completed, the reaction solution was prepared according to the MTS reagent kit, 20 μL was added per well and incubated in a 5% CO2 incubator at 37° C. for 3-4 hours. The absorbance value at 490 nm was read using an enzyme-linked immunosorbent assay (ELISA) plate, and the absorbance value at 690 nm was used as the background value, with OD490 nm-OD690 nm as the final raw data. The formula for calculating the inhibition ratio of compounds was as follows: inhibition ratio=(ODDMSO−ODCompound)/(ODDMSO−ODblank)×100%.

[2] = biological target: BCL2 (D103Y) (Homo sapiens (Human), UniProt P10415, D103Y); assay: Molecular level activity test of BCL2 (D103Y) (HTRF, binding to Bim peptide); conditions: read-out: BCL-2 (D103Y) (nM) (inhibitory activity, IC50)
Method: The detection of the binding ability between anti-apoptotic protein BCL2 (D103Y) and pro-apoptotic protein Bim was performed using Homogeneous Time-Resolved Fluorescence technology. The reaction of this method occurred in a white shallow 384-well plate, with a total reaction volume of 10 μL. Specifically, it included 2 μL of the compound to be tested (2% DMSO), 4 μL His-tagged recombinant protein, and 4 μL Biotin-tagged BIM protein peptide. After 1 hour of reaction, 5 μL of each Anti-His and streptavidin-tagged XL665 antibody diluents diluted with a detection buffer were added. After incubating at room temperature for 4 hours, the values were read using the Envision multifunctional microplate reader to detect the effect of the compound to be tested on the binding ability of BCL2 (D103Y) to BIM protein peptides.

[3] = biological target: human CYP3A4 enzyme (Homo sapiens (Human), UniProt P08684); assay: CYP3A4 enzyme inhibitory activity (Vivid CYP3A4 Green screening kit); conditions: read-out: CYP3A4 (IC50); Vivid CYP3A4 Green screening kit
Sequence of human CYP3A4 enzyme (P08684 whole entry): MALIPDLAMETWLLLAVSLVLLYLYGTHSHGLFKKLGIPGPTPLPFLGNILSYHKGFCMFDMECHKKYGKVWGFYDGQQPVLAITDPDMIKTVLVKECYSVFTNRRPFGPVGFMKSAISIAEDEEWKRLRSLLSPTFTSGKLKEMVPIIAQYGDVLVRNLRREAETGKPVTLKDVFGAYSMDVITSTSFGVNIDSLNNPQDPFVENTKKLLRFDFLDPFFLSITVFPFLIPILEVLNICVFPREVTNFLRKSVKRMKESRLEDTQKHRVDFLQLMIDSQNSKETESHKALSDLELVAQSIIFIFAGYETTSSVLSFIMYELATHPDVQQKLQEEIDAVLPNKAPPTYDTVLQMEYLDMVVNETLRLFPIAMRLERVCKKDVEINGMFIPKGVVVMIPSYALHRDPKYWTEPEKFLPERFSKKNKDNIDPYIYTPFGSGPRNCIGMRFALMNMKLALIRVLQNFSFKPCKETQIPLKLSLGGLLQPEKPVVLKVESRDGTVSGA
Method: The inhibitory activity of compounds on human CYP3A4 enzyme was detected using a VIVID™ CYP3A4 GREEN SCRNING KIT reagent kit. The Vivid™ CYP450 screening kit includes a Vivid™ substrate, Vivid™ fluorescence standard, reaction buffer, Vivid™ regeneration system, NADP+ and CYP450 BACULOSOMES™ Plus reagent. Operations were performed following the instructions, and a blank control group was set up without adding any compounds.
The IC50 value of the compounds inhibiting human CYP3A4 enzyme was calculated using Graphpad Prism 7.00 software through the formula Y=100/(1+10^((Log IC50−X)*HillSlope)).

[4] = biological target: BCL2 (Homo sapiens (Human), UniProt P10415); assay: Molecular level activity test of anti-apoptotic protein BCL2 (HTRF, binding to Bim peptide)
Method in brief: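 Step one: compound, supplied in 2% DMSO, is mixed with His-tagged BCL2 and biotinylated Bim peptide and reacted for 1 h. Step two: anti-His and streptavidin-XL665 reagents in detection buffer are added. Step three: after a 4 h room-temperature incubation, time-resolved fluorescence is measured.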

[5] = biological target: BCL2 (G101V) (Homo sapiens (Human), UniProt P10415, G101V); assay: Molecular level activity test of anti-apoptotic protein BCL2 (G101V) (HTRF, binding to Bim peptide); conditions: inhibition of BCL2 (G101V) binding to Bim peptide, read-out: BCL-2 (G101V)
Method in brief: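 His-tagged recombinant BCL2 (G101V) incubated 1 h with biotin-BIM peptide and compound (2% DMSO), then anti-His and streptavidin-XL665 detection reagents added for 4 h at room temperature. HTRF signal reflects compound effect on BCL2–BIM binding.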

[6] = biological target: BCL-XL (Homo sapiens (Human), UniProt Q07817); assay: BCL-XL enzyme molecular level activity test (HTRF, binding to BIM peptide); conditions: binding of BCL-XL to BIM peptide, read-out: BCL-XL inhibitory activity (IC50)
Sequence of BCL-XL (Q07817 whole entry): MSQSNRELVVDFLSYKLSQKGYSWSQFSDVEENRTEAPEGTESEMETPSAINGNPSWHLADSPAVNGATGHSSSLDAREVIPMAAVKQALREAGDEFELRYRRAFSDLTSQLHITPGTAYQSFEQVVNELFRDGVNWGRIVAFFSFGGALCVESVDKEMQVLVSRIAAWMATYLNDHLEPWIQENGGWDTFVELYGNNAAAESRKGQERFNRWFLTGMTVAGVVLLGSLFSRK
Method in brief: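 HTRF binding assay: His-tagged recombinant BCL-XL with biotin-BIM peptide and compound (2% DMSO), 1 h. Anti-His and streptavidin-XL665 detection reagents added, 4 h at room temperature. Excitation 320 nm; 665/615 nm ratio reflects binding, with no-protein background and no-compound full-binding controls.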

[7] = HTRF, binding of BCL2 to Bim peptide, read-out: BCL2 nM (inhibitory activity, IC50)

Structure (SMILES)	pIC50 [1]	IC50 [2] [nM]	pIC50 [4, 7]	pIC50 [5]	IC50 ([6]; values in nM) [nM]	pIC50 [4]	IC50 ([6]; values given in μM) [nM]	pIC50 [3]
COc1ccc(CN2CCN(C3CC4(CCN(c5cc(Oc6cnc7[nH]ccc7c6)c(C(=O)NS(=O)(=O)c6ccc(NCC7(F)CCN(C8COC8)CC7)c([N+](=O)[O-])c6)cn5)CC4)C3)C(c3ccccc3C(C)C)C2)cc1 (centres unmarked) [compound 053, 4-((1H-pyrrolo[2,3-b]pyrid-5-yl)oxy)-N-((4-(((4-fluoro-1-(oxocyclobut-3-yl)piperid-4-yl)methyl)amino)-3-nitrophenyl)sulfonyl)-6-(2-(2-(2-isopropylphenyl)-4-(4-methoxybenzyl)piperazin-1-yl)-7-azaspiro[3.5]non-7-yl) nicotinamide]	> 9.30	< 10	> 8.00	> 8.00	–	–	–	< 4.70
COc1ccc(CN2CCN(C3CC4(CCN(c5cc(Oc6cnc7[nH]cc(F)c7c6)c(C(=O)NS(=O)(=O)c6ccc(NCC7(F)CCOCC7)c([N+](=O)[O-])c6)cc5F)CC4)C3)[C@H](c3ccccc3C(C)C)C2)cc1OC [compound 253, (R)-4-(2-(4-(3,4-dimethoxybenzyl)-2-(2-isopropylphenyl)piperazin-1-yl)-7-azaspiro[3.5]non-7-yl)-5-fluoro-2-((3-fluoro-1H-pyrrolo[2,3-b]pyrid-5-yl)oxy)-N-((4-(((4-fluorotetrahydro-2H-pyran-4-yl)methyl)amino)-3-nitrophenyl)sulfonyl)benzamide]	9.00 to 9.30	< 10	–	> 8.00	> 500	> 8.00	–	–
COc1ccc(CN2CCN(C3CC4(CCN(c5cc(Oc6cnc7[nH]cc(F)c7c6)c(C(=O)NS(=O)(=O)c6ccc(NCC7(F)CCOCC7)c([N+](=O)[O-])c6)cc5F)CC4)C3)[C@H](c3ccccc3C(C)C)C2)cn1 [compound 254, (R)-5-fluoro-2-((3-fluoro-1H-pyrrolo[2,3-b]pyrid-5-yl)oxy)-N-((4-(((4-fluorotetrahydro-2H-pyran-4-yl)methyl)amino)-3-nitrophenyl)sulfonyl)-4-(2-(2-(2-isopropylphenyl)-4-((6-methoxypyrid-3-yl)methyl)piperazin-1-yl)-7-azaspiro[3.5]non-7-yl)benzamide]	9.00 to 9.30	< 10	> 8.00	> 8.00	> 500	–	–	–
CC(C)c1ccccc1[C@@H]1CN(Cc2cnn(C)c2)CCN1C1CC2(CCN(c3cc(Oc4cnc5[nH]cc(F)c5c4)c(C(=O)NS(=O)(=O)c4ccc(NCC5(F)CCOCC5)c([N+](=O)[O-])c4)cc3F)CC2)C1 [compound 255, (R)-5-fluoro-2-((3-fluoro-1H-pyrrolo[2,3-b]pyrid-5-yl)oxy)-N-((4-(((4-fluorotetrahydro-2H-pyran-4-yl)methyl)amino)-3-nitrophenyl)sulfonyl)-4-(2-(2-(2-isopropylphenyl)-4-((1-methyl-1H-pyrazol-4-yl)methyl)piperazin-1-yl)-7-azaspiro[3.5]non-7-yl)benzamide]	9.00 to 9.30	< 10	> 8.00	> 8.00	> 500	–	–	–
COc1ccc(CN2CCN(C3CC4(CCN(c5cc(Oc6cnc7[nH]ccc7c6)c(C(=O)NS(=O)(=O)c6cc([N+](=O)[O-])c(NCC7CCOCC7)c7c6OCCO7)cc5F)CC4)C3)[C@H](c3ccccc3C(C)C)C2)cc1 [compound 265, (R)-2-((1H-pyrrolo[2,3-b]pyrid-5-yl)oxy)-5-fluoro-4-(2-(2-(2-isopropylphenyl)-4-(4-methoxybenzyl)piperazin-1-yl)-7-azaspiro[3.5]non-7-yl)-N-((7-nitro-8-(((tetrahydro-2H-pyran-4-yl)methyl)amino)-2,3-dihydrobenzo[b][1,4]dioxin-5-yl)sulfonyl)benzamide]	9.00 to 9.30	< 10	> 8.00	> 8.00	–	–	> 20000	–
COc1ccc(CN2CCN(C3CC4(CCN(c5cc(Oc6cnc7[nH]ccc7c6)c(C(=O)NS(=O)(=O)c6cc([N+](=O)[O-])c(NCC7CCOCC7)c7[nH]cnc67)cn5)CC4)C3)[C@H](c3ccccc3C(C)C)C2)cc1 [compound 267, (R)-4-((1H-pyrrolo[2,3-b]pyrid-5-yl)oxy)-6-(2-(2-(2-isopropylphenyl)-4-(4-methoxybenzyl)piperazin-1-yl)-7-azaspiro[3.5]non-7-yl)-N-((6-nitro-7-(((tetrahydro-2H-pyran-4-yl)methyl)amino)-1H benzo[d]imidazol-4-yl)sulfonyl) nicotinamide]	9.00 to 9.30	< 10	> 8.00	> 8.00	> 500	–	–	–

Second part, led by results:

pIC50 [1]	IC50 [2] [nM]	pIC50 [4, 7]	pIC50 [5]	IC50 ([6]; values in nM) [nM]	pIC50 [4]	IC50 ([6]; values given in μM) [nM]	Structure (SMILES)	pIC50 [3]
9.00 to 9.30	< 10	> 8.00	> 8.00	> 500	–	–	CNCc1cc(CN2CCN(C3CC4(CCN(c5cc(Oc6cnc7[nH]ccc7c6)c(C(=O)NS(=O)(=O)c6ccc(NCC7(F)CCOCC7)c([N+](=O)[O-])c6)cc5F)CC4)C3)[C@H](c3ccccc3C(C)C)C2)ccc1OC [compound 249, (R)-2-((1H-pyrrolo[2,3-b]pyrid-5-yl)oxy)-5-fluoro-N-((4-(((4-fluorotetrahydro-2H-pyran-4-yl)methyl)amino)-3-nitrophenyl)sulfonyl)-4-(2-(2-(2-isopropylphenyl)-4-(4-methoxy-3-((methylamino)methyl)benzyl)piperazin-1-yl)-7-azaspiro[3.5]non-7-yl)benzamide]	–
9.00 to 9.30	< 10	> 8.00	> 8.00	> 500	–	–	COc1ccc(CN2CCN(C3CC4(CCN(c5cc(Oc6cnc7[nH]ccc7c6)c(C(=O)NS(=O)(=O)c6ccc(NCC7(F)CCOCC7)c([N+](=O)[O-])c6)cc5F)CC4)C3)[C@H](c3ccccc3C(C)C)C2)cc1CN(C)C [compound 250, (R)-2-((1H-pyrrolo[2,3-b]pyrid-5-yl)oxy)-4-(2-(4-(3-((dimethylamino)methyl)-4-methoxybenzyl)-2-(2-isopropylphenyl)piperazin-1-yl)-7-azaspiro[3.5]non-7-yl)-5-fluoro-N-((4-(((4-fluorotetrahydro-2H-pyran-4-yl)methyl)amino)-3-nitrophenyl)sulfonyl)benzamide]	–
9.00 to 9.30	< 10	> 8.00	> 8.00	> 500	–	–	COc1ccc(CN2CCN(C3CC4(CCN(c5cc(Oc6cnc7[nH]ccc7c6)c(C(=O)NS(=O)(=O)c6ccc(NCC7(F)CCOCC7)c([N+](=O)[O-])c6)cc5F)CC4)C3)[C@H](c3ccccc3C(C)C)C2)cc1CN1CCCC1 [compound 251, (R)-2-((1H-pyrrolo[2,3-b]pyrid-5-yl)oxy)-5-fluoro-N-((4-(((4-fluorotetrahydro-2H-pyran-4-yl)methyl)amino)-3-nitrophenyl)sulfonyl)-4-(2-(2-(2-isopropylphenyl)-4-(4-methoxy-3-(pyrrolidin-1-ylmethyl)benzyl)piperazin-1-yl)-7-azaspiro[3.5]non-7-yl)benzamide]	–
> 9.30	< 10	> 8.00	> 8.00	> 500	–	–	COc1ccc(CN2CCN(C3CC4(CCN(c5ccc(C(=O)NS(=O)(=O)c6cc([N+](=O)[O-])c(NCC7CCOCC7)c7[nH]cnc67)c(Oc6cnc7[nH]ccc7c6)c5)CC4)C3)[C@H](c3ccccc3C(C)C)C2)cc1 [compound 260]	–
